As usually defined, the AC50 is the concentration at which the activity in the assay is half-maximal. Read a low AC50 as activity at low concentration.

Assay [1] has as its target 5-hydroxytryptamine receptor 2B (Homo sapiens, UniProt P41595). It counts as functional, cell-based.
Assay [2] deals with Histamine H3 receptor (Homo sapiens, UniProt Q9Y5N1).
Assay [3] addresses T1, Thromboxane A2 receptor (Homo sapiens, UniProt P21731).
T1 sequence (P21731 whole entry): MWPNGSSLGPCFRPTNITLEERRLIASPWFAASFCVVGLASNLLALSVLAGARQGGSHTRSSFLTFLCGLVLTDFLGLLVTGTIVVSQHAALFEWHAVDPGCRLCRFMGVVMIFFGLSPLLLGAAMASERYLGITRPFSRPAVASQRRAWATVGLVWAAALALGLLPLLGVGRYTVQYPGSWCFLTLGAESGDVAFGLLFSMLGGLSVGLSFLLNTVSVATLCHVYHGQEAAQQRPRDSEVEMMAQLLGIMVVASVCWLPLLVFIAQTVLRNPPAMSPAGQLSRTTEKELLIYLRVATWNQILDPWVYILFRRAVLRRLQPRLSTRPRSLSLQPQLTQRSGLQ
Format: functional, cell-based.

In assay [4] the target is Acetylcholinesterase (Homo sapiens, UniProt P22303). It counts as functional.
Assay [5] deals with T2, 5-hydroxytryptamine receptor 1A (Homo sapiens, UniProt P08908).
T2 sequence (P08908 whole entry): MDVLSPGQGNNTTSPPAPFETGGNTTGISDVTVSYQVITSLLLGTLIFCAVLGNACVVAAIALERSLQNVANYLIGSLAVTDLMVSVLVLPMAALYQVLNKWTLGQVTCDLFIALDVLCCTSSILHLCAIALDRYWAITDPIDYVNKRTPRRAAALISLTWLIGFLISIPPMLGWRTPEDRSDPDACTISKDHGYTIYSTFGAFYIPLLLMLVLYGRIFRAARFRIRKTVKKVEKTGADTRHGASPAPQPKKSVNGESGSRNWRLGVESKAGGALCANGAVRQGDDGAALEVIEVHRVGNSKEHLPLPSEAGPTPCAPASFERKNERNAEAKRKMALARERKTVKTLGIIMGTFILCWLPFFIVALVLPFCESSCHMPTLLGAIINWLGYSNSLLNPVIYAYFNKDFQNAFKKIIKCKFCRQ

Assay [6] has as its target T1, Thromboxane A2 receptor. Format: functional, cell-based. This is another data set of the same source.
The target in assay [7] is T3, Alpha-2A adrenergic receptor (Homo sapiens, UniProt P08913).
T3 sequence (P08913 whole entry): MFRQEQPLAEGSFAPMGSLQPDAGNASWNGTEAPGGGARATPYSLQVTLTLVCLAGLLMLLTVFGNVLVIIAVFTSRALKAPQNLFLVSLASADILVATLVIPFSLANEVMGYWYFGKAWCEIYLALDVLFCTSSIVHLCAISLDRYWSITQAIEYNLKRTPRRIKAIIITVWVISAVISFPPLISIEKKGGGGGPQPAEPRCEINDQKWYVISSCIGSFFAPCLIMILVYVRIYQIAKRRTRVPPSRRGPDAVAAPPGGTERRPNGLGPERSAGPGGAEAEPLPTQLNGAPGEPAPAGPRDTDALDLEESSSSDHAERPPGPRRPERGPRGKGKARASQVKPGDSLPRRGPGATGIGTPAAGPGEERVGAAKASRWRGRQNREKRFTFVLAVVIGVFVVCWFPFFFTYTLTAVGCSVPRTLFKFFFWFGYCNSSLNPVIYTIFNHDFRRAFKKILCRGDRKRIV

Assay [8] addresses T4, Muscarinic acetylcholine receptor M2 (Homo sapiens, UniProt P08172).
T4 sequence (P08172 whole entry): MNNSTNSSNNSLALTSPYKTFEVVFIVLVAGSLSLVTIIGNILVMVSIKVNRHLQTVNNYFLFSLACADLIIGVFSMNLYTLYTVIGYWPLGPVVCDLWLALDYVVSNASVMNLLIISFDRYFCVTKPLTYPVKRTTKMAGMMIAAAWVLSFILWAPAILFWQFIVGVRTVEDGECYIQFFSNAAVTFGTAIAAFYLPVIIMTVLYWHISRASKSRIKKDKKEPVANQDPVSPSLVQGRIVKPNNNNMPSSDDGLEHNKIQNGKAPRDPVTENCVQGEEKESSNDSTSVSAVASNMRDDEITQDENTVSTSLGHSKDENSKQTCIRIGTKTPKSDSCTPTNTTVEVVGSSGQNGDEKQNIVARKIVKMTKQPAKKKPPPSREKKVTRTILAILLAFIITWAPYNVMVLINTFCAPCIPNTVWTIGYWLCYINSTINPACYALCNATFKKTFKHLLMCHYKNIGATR

For assay [9], the target named is Kappa-type opioid receptor (Homo sapiens, UniProt P41145).
The target in assay [10] is T5, Amine oxidase [flavin-containing] A (Homo sapiens, UniProt P21397).
T5 sequence (P21397 whole entry): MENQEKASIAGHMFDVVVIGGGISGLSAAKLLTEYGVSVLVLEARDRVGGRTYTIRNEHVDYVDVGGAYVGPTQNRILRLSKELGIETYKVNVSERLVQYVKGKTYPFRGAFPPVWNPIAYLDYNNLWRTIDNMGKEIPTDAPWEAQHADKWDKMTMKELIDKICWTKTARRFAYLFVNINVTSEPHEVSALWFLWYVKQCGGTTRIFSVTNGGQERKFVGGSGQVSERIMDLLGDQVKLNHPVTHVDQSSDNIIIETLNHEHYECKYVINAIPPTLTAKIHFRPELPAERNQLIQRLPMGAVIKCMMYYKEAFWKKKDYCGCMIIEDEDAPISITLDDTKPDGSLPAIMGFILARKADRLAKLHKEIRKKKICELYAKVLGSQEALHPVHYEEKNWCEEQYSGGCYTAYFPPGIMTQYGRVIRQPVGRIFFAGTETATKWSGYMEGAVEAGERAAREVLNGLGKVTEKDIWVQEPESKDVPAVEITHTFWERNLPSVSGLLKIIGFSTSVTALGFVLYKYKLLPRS
Format: functional.

Assay [11] deals with 3',5'-cyclic-AMP phosphodiesterase 4A (Homo sapiens, UniProt P27815). It counts as functional.
Assay [12] addresses Prothrombin (Homo sapiens, UniProt P00734). Format: functional.
The target in assay [13] is cGMP-inhibited 3',5'-cyclic phosphodiesterase 3A (Homo sapiens, UniProt Q14432). It counts as functional.
The target of assay [14] is Sodium-dependent dopamine transporter (Homo sapiens, UniProt Q01959).
For assay [15], the target named is Voltage-gated inwardly rectifying potassium channel KCNH2 (Homo sapiens, UniProt Q12809). Format: functional.
In assay [16] the target is T3, Alpha-2A adrenergic receptor. It counts as functional, cell-based.

Molecules are shown by their SMILES. A value given as a limit tells only on which side of the number the result lay.
Also: assay procedure not described here.

Sequence of 3',5'-cyclic-AMP phosphodiesterase 4A (P27815 whole entry): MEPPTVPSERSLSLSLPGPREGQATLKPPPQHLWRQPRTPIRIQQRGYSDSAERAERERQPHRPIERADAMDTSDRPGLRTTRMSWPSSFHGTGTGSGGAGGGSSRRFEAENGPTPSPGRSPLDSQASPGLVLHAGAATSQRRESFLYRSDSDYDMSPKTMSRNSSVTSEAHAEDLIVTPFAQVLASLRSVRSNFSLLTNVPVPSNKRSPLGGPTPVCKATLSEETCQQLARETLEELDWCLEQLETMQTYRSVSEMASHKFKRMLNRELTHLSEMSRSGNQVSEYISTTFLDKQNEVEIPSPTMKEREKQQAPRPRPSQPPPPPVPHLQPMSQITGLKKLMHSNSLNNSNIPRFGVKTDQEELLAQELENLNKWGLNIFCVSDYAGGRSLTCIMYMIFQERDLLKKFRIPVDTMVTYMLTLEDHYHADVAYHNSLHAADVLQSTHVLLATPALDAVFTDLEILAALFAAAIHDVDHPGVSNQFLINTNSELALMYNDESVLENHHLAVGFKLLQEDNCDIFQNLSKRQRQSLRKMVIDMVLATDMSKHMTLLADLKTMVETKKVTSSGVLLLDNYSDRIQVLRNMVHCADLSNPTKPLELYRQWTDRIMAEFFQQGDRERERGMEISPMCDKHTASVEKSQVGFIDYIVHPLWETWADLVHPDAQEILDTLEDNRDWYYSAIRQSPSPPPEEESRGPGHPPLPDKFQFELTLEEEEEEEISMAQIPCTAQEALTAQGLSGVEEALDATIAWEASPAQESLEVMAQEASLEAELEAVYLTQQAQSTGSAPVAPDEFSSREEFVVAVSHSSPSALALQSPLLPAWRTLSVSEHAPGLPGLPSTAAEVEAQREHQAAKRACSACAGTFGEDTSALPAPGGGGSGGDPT
Sequence of Histamine H3 receptor (Q9Y5N1 whole entry): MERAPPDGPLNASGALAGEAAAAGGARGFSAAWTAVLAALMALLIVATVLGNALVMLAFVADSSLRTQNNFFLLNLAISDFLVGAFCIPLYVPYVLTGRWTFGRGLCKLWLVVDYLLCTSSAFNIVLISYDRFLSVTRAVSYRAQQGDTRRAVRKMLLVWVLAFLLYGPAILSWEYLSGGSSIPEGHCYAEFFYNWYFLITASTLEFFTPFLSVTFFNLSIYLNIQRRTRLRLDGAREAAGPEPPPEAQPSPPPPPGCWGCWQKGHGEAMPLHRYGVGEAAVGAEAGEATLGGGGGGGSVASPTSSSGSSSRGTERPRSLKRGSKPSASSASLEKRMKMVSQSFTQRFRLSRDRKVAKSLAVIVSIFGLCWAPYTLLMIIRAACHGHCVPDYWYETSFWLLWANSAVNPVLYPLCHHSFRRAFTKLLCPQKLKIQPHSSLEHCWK
Sequence of Sodium-dependent dopamine transporter (Q01959 whole entry): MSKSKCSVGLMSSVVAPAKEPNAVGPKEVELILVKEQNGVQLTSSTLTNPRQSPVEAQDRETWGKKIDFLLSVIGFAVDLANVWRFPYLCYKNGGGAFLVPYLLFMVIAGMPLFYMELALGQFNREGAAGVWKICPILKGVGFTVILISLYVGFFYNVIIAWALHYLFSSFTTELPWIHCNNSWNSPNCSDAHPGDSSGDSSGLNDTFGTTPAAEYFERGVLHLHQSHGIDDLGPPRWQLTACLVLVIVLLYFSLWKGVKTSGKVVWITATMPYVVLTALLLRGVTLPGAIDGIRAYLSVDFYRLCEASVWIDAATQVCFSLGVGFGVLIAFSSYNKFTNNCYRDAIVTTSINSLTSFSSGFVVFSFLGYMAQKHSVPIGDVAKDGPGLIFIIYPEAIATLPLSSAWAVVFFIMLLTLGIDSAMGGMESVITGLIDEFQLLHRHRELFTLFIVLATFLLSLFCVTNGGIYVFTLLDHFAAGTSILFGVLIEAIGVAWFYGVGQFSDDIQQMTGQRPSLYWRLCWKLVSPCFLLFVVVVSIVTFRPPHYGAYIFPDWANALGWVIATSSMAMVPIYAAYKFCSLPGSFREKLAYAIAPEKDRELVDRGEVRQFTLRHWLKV
Sequence of 5-hydroxytryptamine receptor 2B (P41595 whole entry): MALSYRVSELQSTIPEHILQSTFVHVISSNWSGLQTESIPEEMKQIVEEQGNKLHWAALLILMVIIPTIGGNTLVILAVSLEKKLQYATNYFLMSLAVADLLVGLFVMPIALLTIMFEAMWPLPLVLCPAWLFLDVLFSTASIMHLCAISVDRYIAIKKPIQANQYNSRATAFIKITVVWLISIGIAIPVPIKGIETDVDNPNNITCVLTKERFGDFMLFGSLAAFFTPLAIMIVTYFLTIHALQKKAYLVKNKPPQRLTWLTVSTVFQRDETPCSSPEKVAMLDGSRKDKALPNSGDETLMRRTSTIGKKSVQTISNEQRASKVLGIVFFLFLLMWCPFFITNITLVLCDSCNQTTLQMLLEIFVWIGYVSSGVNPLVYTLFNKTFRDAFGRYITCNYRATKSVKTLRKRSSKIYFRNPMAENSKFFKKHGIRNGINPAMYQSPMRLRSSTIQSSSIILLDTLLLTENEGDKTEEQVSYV
Sequence of cGMP-inhibited 3',5'-cyclic phosphodiesterase 3A (Q14432 whole entry): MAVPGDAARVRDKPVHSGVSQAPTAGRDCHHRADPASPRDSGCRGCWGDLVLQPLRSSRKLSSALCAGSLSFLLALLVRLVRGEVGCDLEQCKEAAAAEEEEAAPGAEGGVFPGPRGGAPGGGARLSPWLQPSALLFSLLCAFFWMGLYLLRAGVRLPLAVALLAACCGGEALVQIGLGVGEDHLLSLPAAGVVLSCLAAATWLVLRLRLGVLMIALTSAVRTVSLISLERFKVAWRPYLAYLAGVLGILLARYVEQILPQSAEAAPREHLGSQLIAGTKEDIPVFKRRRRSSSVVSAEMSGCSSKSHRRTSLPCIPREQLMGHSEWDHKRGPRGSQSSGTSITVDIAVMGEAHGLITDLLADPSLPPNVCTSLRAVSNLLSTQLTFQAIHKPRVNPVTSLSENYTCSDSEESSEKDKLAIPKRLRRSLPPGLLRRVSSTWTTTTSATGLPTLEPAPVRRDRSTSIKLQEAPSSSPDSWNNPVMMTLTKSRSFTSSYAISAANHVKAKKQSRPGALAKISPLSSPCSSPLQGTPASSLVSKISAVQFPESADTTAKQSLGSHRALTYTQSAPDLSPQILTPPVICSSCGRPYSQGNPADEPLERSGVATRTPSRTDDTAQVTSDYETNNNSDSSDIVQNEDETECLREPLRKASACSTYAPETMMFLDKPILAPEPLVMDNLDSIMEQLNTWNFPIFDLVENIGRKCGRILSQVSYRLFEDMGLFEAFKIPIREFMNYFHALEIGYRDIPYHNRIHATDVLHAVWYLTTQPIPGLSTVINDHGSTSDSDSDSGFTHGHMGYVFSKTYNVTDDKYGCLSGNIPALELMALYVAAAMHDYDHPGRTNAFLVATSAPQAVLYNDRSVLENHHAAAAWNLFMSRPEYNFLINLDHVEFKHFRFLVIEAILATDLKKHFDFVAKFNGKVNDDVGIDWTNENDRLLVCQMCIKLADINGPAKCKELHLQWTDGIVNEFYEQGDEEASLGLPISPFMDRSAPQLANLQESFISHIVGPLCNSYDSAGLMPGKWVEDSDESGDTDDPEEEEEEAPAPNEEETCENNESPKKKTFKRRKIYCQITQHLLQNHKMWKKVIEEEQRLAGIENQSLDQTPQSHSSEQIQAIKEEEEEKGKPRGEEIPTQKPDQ
Sequence of Acetylcholinesterase (P22303 whole entry): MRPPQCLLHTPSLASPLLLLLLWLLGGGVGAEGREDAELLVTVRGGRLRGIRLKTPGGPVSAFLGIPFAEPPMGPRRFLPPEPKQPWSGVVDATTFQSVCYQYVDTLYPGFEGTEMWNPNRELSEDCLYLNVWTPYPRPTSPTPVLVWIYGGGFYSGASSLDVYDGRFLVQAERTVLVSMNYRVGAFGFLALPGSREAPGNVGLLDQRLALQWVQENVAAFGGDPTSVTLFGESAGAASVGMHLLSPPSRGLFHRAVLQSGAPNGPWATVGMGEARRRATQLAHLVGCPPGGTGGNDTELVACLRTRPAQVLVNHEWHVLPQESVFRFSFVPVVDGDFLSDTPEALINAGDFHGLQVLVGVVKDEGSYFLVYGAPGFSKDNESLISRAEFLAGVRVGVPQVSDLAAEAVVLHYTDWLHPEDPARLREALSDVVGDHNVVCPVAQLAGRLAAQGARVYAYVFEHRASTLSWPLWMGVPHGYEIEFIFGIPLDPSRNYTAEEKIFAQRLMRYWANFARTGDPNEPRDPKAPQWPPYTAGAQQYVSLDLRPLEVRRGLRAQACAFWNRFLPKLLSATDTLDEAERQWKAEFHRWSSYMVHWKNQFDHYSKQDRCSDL
Sequence of Kappa-type opioid receptor (P41145 whole entry): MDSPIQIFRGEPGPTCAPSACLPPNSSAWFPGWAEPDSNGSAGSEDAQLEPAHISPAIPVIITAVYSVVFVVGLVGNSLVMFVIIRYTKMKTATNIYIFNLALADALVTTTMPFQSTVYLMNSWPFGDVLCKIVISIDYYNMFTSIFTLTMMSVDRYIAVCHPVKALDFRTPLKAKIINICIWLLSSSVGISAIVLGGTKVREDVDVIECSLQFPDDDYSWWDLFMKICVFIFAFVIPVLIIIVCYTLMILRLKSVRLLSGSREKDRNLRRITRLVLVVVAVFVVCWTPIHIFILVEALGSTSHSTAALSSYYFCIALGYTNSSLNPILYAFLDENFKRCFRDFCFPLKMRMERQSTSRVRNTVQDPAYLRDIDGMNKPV

With `O=C(/C=C/c1cccc(S(=O)(=O)Nc2ccccc2)c1)NO` [BELINOSTAT], the AC50 in [1], in assay [2], in assay [3], in assay [4], in assay [5] and in [6] was more than 30 µM each time. In addition, the AC50 was more than 30 µM in assay [7]; more than 30 µM in assay [8]; more than 10 µM in [9]; more than 30 µM in assay [10]; 23.7 µM in assay [11]; more than 30 µM in assay [12]. Moreover, the half-maximal activity concentration (AC50) in [13] and in assay [14] was more than 30 µM in each case.
Take `CC(=O)O[C@]1(C(C)=O)CC[C@H]2[C@@H]3C=C(Cl)C4=CC(=O)[C@@H]5C[C@@H]5[C@]4(C)[C@H]3CC[C@@]21C` [CYPROTERONE ACETATE]: the concentration at half-maximal activity (AC50) in assay [15], in assay [1], in assay [2], in [3], in assay [4] and in assay [5] was more than 30 µM throughout. Besides, the AC50 in assay [6] was more than 3 µM; in [7] it was more than 30 µM; in assay [8], 9.17 µM; in assay [9], more than 10 µM; in [10] it was more than 30 µM; in assay [11] it was more than 30 µM. Further, the AC50 in [12], in assay [13] and in [14] was more than 30 µM in each case.
Take `O=S1(=O)CCN(CN2CCS(=O)(=O)NC2)CN1` [TAUROLIDINE]: the AC50 in assay [15], in assay [1], in assay [16], in assay [2], in assay [3] and in [4] was more than 30 µM in each case. For the same molecule, the AC50 in [5], in assay [6], in [7], in assay [8], in assay [9] and in assay [10] was more than 30 µM each time. Also, the AC50 in assay [11], in assay [12], in assay [13] and in assay [14] was more than 30 µM in each case.
As for `C[C@@H]1C[C@H]2[C@@H]3C[C@H](F)C4=CC(=O)C=C[C@]4(C)[C@@]3(F)[C@@H](O)C[C@]2(C)[C@@]1(OC(=O)c1ccco1)C(=O)SCF` [FLUTICASONE FUROATE], the AC50 in assay [15] is more than 30 µM; in assay [1], more than 30 µM; in assay [16], more than 10 µM; in assay [2], more than 30 µM; in assay [3], more than 30 µM; in assay [4], more than 30 µM. The AC50 in assay [5] is more than 30 µM; in assay [6], more than 30 µM; in assay [7], more than 30 µM; in assay [8] it was more than 30 µM; in assay [9], more than 10 µM; in assay [10] it was more than 30 µM. The AC50 in [11], in [12], in assay [13] and in [14] was more than 30 µM in each case.
Take `CN1CCCN(C(c2ccccc2)c2ccc(Cl)cc2)CC1` (configuration not stated) [HOMOCHLORCYCLIZINE]: the AC50 in assay [15] is 0.81 µM; in assay [1] it was more than 30 µM; in assay [2], more than 30 µM; in assay [3] it was 11.8 µM; in assay [4], more than 30 µM; in [5] it was 13.7 µM. For the same molecule, the AC50 is more than 3 µM in [6]; 1.35 µM in assay [7]; 0.149 µM in assay [8]; more than 30 µM in [10]; more than 30 µM in [11]; more than 30 µM in assay [12]. Further, the values for the AC50 in [13] and in assay [14] were more than 30 µM and 0.229 µM, respectively.
Consider `CCCn1cnc2c1c(=O)n(CCCCC(C)=O)c(=O)n2C` [PROPENTOFYLLINE], for which the concentration at half-maximal activity (AC50) in [15], in assay [1], in assay [2], in assay [3], in assay [4] and in [5] was more than 30 µM throughout. Also, the AC50 was more than 30 µM in assay [6]; more than 30 µM in assay [7]; more than 30 µM in assay [8]; more than 30 µM in [10]; 8.96 µM in assay [11]; more than 30 µM in assay [12]. For the same molecule, the AC50 in assay [13] and in assay [14] was more than 30 µM throughout.
Regarding `Cc1cc2c(cc1S(N)(=O)=O)S(=O)(=O)CCC2`, the AC50 in assay [15], in assay [1], in assay [2], in assay [3], in assay [4] and in [5] was more than 30 µM throughout. Further, the AC50 in [6], in [7], in assay [8], in assay [10], in [11] and in [12] was more than 30 µM in each case. The AC50 in assay [13] and in assay [14] was more than 30 µM in each case.
As to `CC(=O)OCC(=O)[C@@]1(O)CC[C@H]2[C@@H]3CCC4=CC(=O)CC[C@]4(C)[C@H]3[C@@H](O)C[C@@]21C` [HYDROCORTISONE ACETATE], the AC50 in assay [15], in [1], in assay [2], in assay [3], in assay [4] and in assay [5] was more than 30 µM in each case. The AC50 in assay [6], in assay [7], in assay [8], in assay [10], in [11] and in assay [12] was more than 30 µM throughout. Besides, the AC50 in assay [13] and in assay [14] was more than 30 µM in each case.

These data come from ChEMBL document CHEMBL5291721, “A preclinical secondary pharmacology resource illuminates target-adverse drug reaction associations of marketed drugs” (Nat Commun, 2023).
